Holding throughout (assay): NCI anticancer screen, dose series, 48 h
Assay [1] has as its system OVCAR-3.
Assay [2] concerns SK-MEL-2.
Assay [3] relates to A498.
Assay [4] deals with KM12.
In assay [5] the test system is HOP-62.
The test system of assay [6] is NCI-H460.
The subject of assay [7] is SK-OV-3.
Assay [8] relates to HOP-92.
Assay [9] relates to SK-MEL-28.
Assay [10] concerns HCC 2998.
Assay [11] concerns HT-29.
In assay [12] the test system is OVCAR-8.
The subject of assay [13] is RPMI-8226.
Assay [14] has as its system OVCAR-4.
The test system of assay [15] is U-251.
Assay [16] concerns DU-145.
Assay [17] deals with MCF7.
Assay [18] deals with PC-3.
Assay [19] concerns NCI/ADR-RES.
Assay [20] relates to MDA-N.

Each structure is given as a SMILES string.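 Interpolation was linear, between the two tested concentrations surrounding the appropriate level; five concentrations were tested over 48 hours in 96-well plates. Here, GI50 denotes the concentration required for 50% inhibition of growth.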 The source made the active and inactive calls. Cut-off read from the data, not from the text of the source: active = GI50 up to about 1.1 µM and inactive = higher. Bounds are passed on as bounds.

For `N#C/N=C(\N)NCCO`, the GI50 in assay [1], in [2], in assay [3], in [4], in assay [5] and in [6] was > 100 µM (inactive) each time. The GI50 in assay [7], in [8], in assay [9], in assay [10], in assay [11] and in assay [12] was > 100 µM (inactive) each time. Also, the figures for the GI50 in [13], in [14] and in assay [15] were > 100 µM (inactive), > 100 µM (inactive) and 37.2 µM (inactive), respectively.
On to `[O-][Cl+3]([O-])([O-])[O-].[O-][Cl+3]([O-])([O-])[O-].c1ccn2c(N3CCCC3)[n+]3c4ccccc4n4c(N5CCCC5)[n+]5ccccc5c4c3c2c1`, for which the GI50 in [1] was 87.5 µM (inactive); in assay [2] it was 39.2 µM (inactive); in assay [3], > 100 µM (inactive); in assay [4], 40.3 µM (inactive); in [16] it was > 100 µM (inactive); in assay [17] it was 67.1 µM (inactive). For the same compound, the GI50 in [6] is 94.4 µM (inactive); in assay [8], 73.1 µM (inactive); in assay [9], > 100 µM (inactive); in assay [10] it was 78.3 µM (inactive); in assay [12] it was 25.4 µM (inactive); in assay [13], 98.6 µM (inactive). For the same compound, the GI50 in assay [18] was 46.5 µM (inactive); in assay [19], > 100 µM (inactive); in assay [14], > 100 µM (inactive); in assay [15] it was 28.2 µM (inactive).
As to `c1ccc(OCc2nnc3n2N=C(c2ccccc2)CS3)cc1`, the GI50 in assay [1] is > 100 µM (inactive); in [2], 75.3 µM (inactive); in assay [3], 53.5 µM (inactive); in assay [4] it was > 100 µM (inactive); in assay [5], > 100 µM (inactive); in assay [6] it was > 100 µM (inactive). Moreover, the GI50 in assay [7], in assay [8], in assay [9], in assay [10], in assay [11] and in [12] was > 100 µM (inactive) throughout. The GI50 in assay [13], in assay [14] and in assay [15] was > 100 µM (inactive) throughout.
In the case of `Nc1ncnc2c(C3OC(CO)C(O)C3O)scc12` (centres undefined), the GI50 in assay [1] is 0.00241 µM (active); in assay [2], 0.0431 µM (active); in assay [3] it was 0.0316 µM (active); in [4], < 0.001 µM (active); in [5], 0.133 µM (active); in assay [6], 0.00615 µM (active). Further, the GI50 in [7] was < 0.001 µM (active); in assay [8] it was 0.0117 µM (active); in assay [9] it was 0.873 µM (active); in [10], 0.00504 µM (active); in assay [11] it was 0.00458 µM (active); in assay [12] it was 0.00179 µM (active). Moreover, the figures for the GI50 in [13], in assay [14] and in [15] were 0.00222 µM (active), 0.0468 µM (active) and 3.78 µM (inactive), respectively.
For `C/N=c1\ss/c(=N\C(=S)N(C)C)n1C1CCCCC1`, the GI50 in assay [1] is > 31.6 µM (inactive); in [2] it was > 31.6 µM (inactive); in assay [3] it was > 31.6 µM (inactive); in assay [4], > 31.6 µM (inactive); in [5], > 100 µM (inactive); in assay [6], > 31.6 µM (inactive). Also, the GI50 is 24.2 µM (inactive) in [7]; > 10 µM (inactive) in assay [8]; > 31.6 µM (inactive) in [9]; > 31.6 µM (inactive) in [10]; > 31.6 µM (inactive) in [11]; > 31.6 µM (inactive) in assay [12]. Further, the GI50 was > 100 µM (inactive) in assay [13], > 31.6 µM (inactive) in assay [14] and > 31.6 µM (inactive) in assay [15].
On to `O=C(CBr)c1ccc2cc(Br)c3ccccc3c2c1`, for which the GI50 was 20.6 µM (inactive) in [1]; 20.6 µM (inactive) in assay [2]; 17.8 µM (inactive) in [4]; 22.8 µM (inactive) in assay [16]; 26.4 µM (inactive) in [17]; 37.4 µM (inactive) in assay [5]. Besides, the GI50 was 23 µM (inactive) in assay [6]; 20.9 µM (inactive) in assay [8]; 25.1 µM (inactive) in assay [9]; 54.2 µM (inactive) in assay [10]; 32.3 µM (inactive) in assay [11]; 24.2 µM (inactive) in assay [12]. Besides, the GI50 in assay [13] is 20.3 µM (inactive); in assay [18] it was 21 µM (inactive); in [19], 36.7 µM (inactive); in [14], 25.3 µM (inactive); in assay [15] it was 46.3 µM (inactive).
Regarding `CNc1nc(=S)[nH]c2sc3c(c12)CCCC3`, the GI50 in assay [1], in assay [2], in [3], in assay [4], in assay [16] and in assay [17] was > 75 µM (inactive) in each case. Besides, the GI50 in assay [5], in assay [9], in [10], in assay [11], in assay [12] and in assay [13] was > 75 µM (inactive) in each case. Further, the GI50 in [18], in assay [19], in [14] and in [15] was > 75 µM (inactive) in each case.
As for `Cc1ccc2c(c1C)CC1(Cc3c(C)ccc(C)c3C1=O)C2=O` (centres undefined), the GI50 in assay [20], in assay [3], in [4], in [16], in assay [17] and in assay [6] was > 100 µM (inactive) in each case. In addition, the GI50 in [7], in [8], in [9], in assay [10], in [11] and in [12] was > 100 µM (inactive) each time. The GI50 in assay [13], in assay [19], in assay [14] and in assay [15] was > 100 µM (inactive) in each case.
With `Cc1c(C(=O)CC(=O)C(=O)NC2C3CC4CC(C3)CC2C4)[n+]([O-])c2ccccc2[n+]1[O-]` (centres undefined), the GI50 in [1] was 24 µM (inactive); in assay [2] it was > 100 µM (inactive); in assay [3] it was > 100 µM (inactive); in assay [4], > 100 µM (inactive); in assay [5], > 100 µM (inactive); in assay [6], > 100 µM (inactive). Also, the GI50 in assay [7], in [8], in assay [9], in assay [10], in assay [11] and in assay [12] was > 100 µM (inactive) each time. Moreover, the GI50 in [13], in [14] and in [15] was > 100 µM (inactive) each time.
`COC(=O)/C(=C(/C)c1ccco1)P(=O)(OC)OC`: the GI50 in assay [1], in [2], in assay [3], in [4], in assay [16] and in assay [17] was > 100 µM (inactive) throughout. In addition, the GI50 in [5], in assay [7], in [8], in [9], in assay [10] and in assay [11] was > 100 µM (inactive) each time. In addition, the GI50 in [12], in [13], in assay [18], in [19], in assay [14] and in assay [15] was > 100 µM (inactive) each time.
On to `CC(C)(c1ccc(OC#N)cc1)c1ccc(OC#N)cc1`, for which the GI50 in assay [1] is > 100 µM (inactive); in assay [2] it was > 100 µM (inactive); in assay [3], > 100 µM (inactive); in assay [4], > 100 µM (inactive); in assay [5], > 100 µM (inactive); in assay [6], > 58.7 µM (inactive). Moreover, the GI50 in [7], in assay [8], in [9], in [10], in assay [11] and in assay [12] was > 100 µM (inactive) each time. Further, the values for the GI50 in assay [13], in assay [14] and in assay [15] were > 52.6 µM (inactive), > 100 µM (inactive) and > 68.5 µM (inactive), respectively.
For the compound `CCN(CC)C(=S)SS(=O)(=O)c1ccc(C)cc1`, the GI50 in assay [1] is 39.6 µM (inactive); in assay [20], 27.9 µM (inactive); in assay [2] it was 50.4 µM (inactive); in [3] it was > 100 µM (inactive); in assay [4], 14.2 µM (inactive); in assay [16] it was 42.6 µM (inactive). Moreover, the GI50 in assay [5] was 23.2 µM (inactive); in [6], 27.2 µM (inactive); in assay [7] it was > 100 µM (inactive); in assay [9], 18.5 µM (inactive); in [10] it was 36.9 µM (inactive); in [11] it was 13.2 µM (inactive). For the same compound, the GI50 was 19.5 µM (inactive) in assay [12], 35.6 µM (inactive) in [19], 43.2 µM (inactive) in assay [14] and 23.3 µM (inactive) in assay [15].
On to `NNC(=O)/C(NC(=O)c1ccccc1)=C(\N)c1ccc(Cl)cc1`, for which the GI50 was > 100 µM (inactive) in assay [1]; > 100 µM (inactive) in assay [2]; 80.5 µM (inactive) in assay [3]; > 100 µM (inactive) in assay [4]; > 100 µM (inactive) in [5]; > 100 µM (inactive) in assay [6]. For the same compound, the GI50 in assay [7], in [8], in assay [9], in [10], in [11] and in [12] was > 100 µM (inactive) throughout. In addition, the values for the GI50 in assay [13], in assay [14] and in [15] were 73.5 µM (inactive), > 100 µM (inactive) and > 100 µM (inactive), respectively.

Values taken from ChEMBL document CHEMBL1201862, “PubChem BioAssay data set” (2004).
